# Assay results: ChEMBL document CHEMBL1144896 (2003)
# Experiments:
# Assay type in all cases: functional
# [1] = system: NCI-H1299; experiment: Compound was tested for human telomerase reverse transcriptase-SEAP (hTERT-SEAP) activity in non-small cell lung cancer H1299 cell at 21 uM concentration
# [2] = system: BJ; experiment: hTERT-SEAP (Human telomerase reverse transcriptase-SEAP) activity in immortalized hTERT-BJI at 210.0 uM concentration and level of cell viability determined in MTT assay
# [3] = system: BJ; experiment: Compound was tested for human telomerase reverse transcriptase-SEAP (hTERT-SEAP) activity in immortalized hTERT-BJI at 2.1 uM concentration
# [4] = system: NCI-H1299; experiment: hTERT-SEAP (Human telomerase reverse transcriptase-SEAP) activity in non-small cell lung cancer H1299 cell at 210.0 uM concentration and level of cell viability determined in MTT assay
# [5] = system: NCI-H1299; experiment: Compound was tested for human telomerase reverse transcriptase-SEAP (hTERT-SEAP) activity in non-small cell lung cancer H1299 cell at 210.0 uM concentration
# [6] = system: NCI-H1299; experiment: hTERT-SEAP (Human telomerase reverse transcriptase-SEAP) activity in non-small cell lung cancer H1299 cell at 2.1 uM concentration and level of cell viability determined in MTT assay
# [7] = system: BJ; experiment: hTERT-SEAP (Human telomerase reverse transcriptase-SEAP) activity in immortalized hTERT-BJI at 21 uM concentration and level of cell viability determined in MTT assay
# [8] = system: BJ; experiment: Compound was tested for human telomerase reverse transcriptase-SEAP (hTERT-SEAP) activity in immortalized hTERT-BJI at 210.0 uM concentration
# [9] = system: BJ; experiment: Compound was tested for human telomerase reverse transcriptase-SEAP (hTERT-SEAP) activity in immortalized hTERT-BJI at 21 uM concentration
# [10] = system: NCI-H1299; experiment: Compound was tested for human telomerase reverse transcriptase-SEAP (hTERT-SEAP) activity in non-small cell lung cancer H1299 cell at 2.1 uM concentration
# [11] = system: NCI-H1299; experiment: hTERT-SEAP (Human telomerase reverse transcriptase-SEAP) activity in non-small cell lung cancer H1299 cell at 21 uM concentration and level of cell viability determined in MTT assay
# [12] = system: BJ; experiment: Compound was tested for human telomerase reverse transcriptase-SEAP (hTERT-SEAP) activity in immortalized hTERT-BJI at 22 uM concentration
# [13] = system: NCI-H1299; experiment: hTERT-SEAP (Human telomerase reverse transcriptase-SEAP) activity in non-small cell lung cancer H1299 cell at 2.2 uM concentration and level of cell viability determined in MTT assay
# [14] = system: NCI-H1299; experiment: Compound was tested for human telomerase reverse transcriptase-SEAP (hTERT-SEAP) activity in non-small cell lung cancer H1299 cell at 22 uM concentration
# [15] = system: BJ; experiment: Compound was tested for human telomerase reverse transcriptase-SEAP (hTERT-SEAP) activity in immortalized hTERT-BJI at 220.0 uM concentration
# [16] = system: NCI-H1299; experiment: Compound was tested for human telomerase reverse transcriptase-SEAP (hTERT-SEAP) activity in non-small cell lung cancer H1299 cell at 220.0 uM concentration
# [17] = system: BJ; experiment: hTERT-SEAP (Human telomerase reverse transcriptase-SEAP) activity in immortalized hTERT-BJI at 2.2 uM concentration and level of cell viability determined in MTT assay
# [18] = system: NCI-H1299; experiment: hTERT-SEAP (Human telomerase reverse transcriptase-SEAP) activity in non-small cell lung cancer H1299 cell at 22 uM concentration and level of cell viability determined in MTT assay
# [19] = system: NCI-H1299; experiment: Compound was tested for human telomerase reverse transcriptase-SEAP (hTERT-SEAP) activity in non-small cell lung cancer H1299 cell at 2.2 uM concentration
# [20] = system: BJ; experiment: hTERT-SEAP (Human telomerase reverse transcriptase-SEAP) activity in immortalized hTERT-BJI at 220.0 uM concentration and level of cell viability determined in MTT assay
# [21] = system: NCI-H1299; experiment: hTERT-SEAP (Human telomerase reverse transcriptase-SEAP) activity in non-small cell lung cancer H1299 cell at 220.0 uM concentration and level of cell viability determined in MTT assay
# [22] = system: BJ; experiment: hTERT-SEAP (Human telomerase reverse transcriptase-SEAP) activity in immortalized hTERT-BJI at 22 uM concentration and level of cell viability determined in MTT assay
# [23] = system: BJ; experiment: Compound was tested for human telomerase reverse transcriptase-SEAP (hTERT-SEAP) activity in immortalized hTERT-BJI at 2.2 uM concentration
# [24] = system: NCI-H1299; experiment: hTERT-SEAP (Human telomerase reverse transcriptase-SEAP) activity in non-small cell lung cancer H1299 cell at 230.0 uM concentration and level of cell viability determined in MTT assay
# [25] = system: BJ; experiment: Compound was tested for human telomerase reverse transcriptase-SEAP (hTERT-SEAP) activity in immortalized hTERT-BJI at 230.0 uM concentration
# [26] = system: NCI-H1299; experiment: Compound was tested for human telomerase reverse transcriptase-SEAP (hTERT-SEAP) activity in non-small cell lung cancer H1299 cell at 23 uM concentration
# [27] = system: BJ; experiment: hTERT-SEAP (Human telomerase reverse transcriptase-SEAP) activity in immortalized hTERT-BJI at 23 uM concentration and level of cell viability determined in MTT assay
# [28] = system: BJ; experiment: Compound was tested for human telomerase reverse transcriptase-SEAP (hTERT-SEAP) activity in immortalized hTERT-BJI at 23 uM concentration
# [29] = system: NCI-H1299; experiment: Compound was tested for human telomerase reverse transcriptase-SEAP (hTERT-SEAP) activity in non-small cell lung cancer H1299 cell at 230.0 uM concentration
# [30] = system: BJ; experiment: hTERT-SEAP (Human telomerase reverse transcriptase-SEAP) activity in immortalized hTERT-BJI at 230.0 uM concentration and level of cell viability determined in MTT assay
# [31] = system: NCI-H1299; experiment: Compound was tested for human telomerase reverse transcriptase-SEAP (hTERT-SEAP) activity in non-small cell lung cancer H1299 cell at 2.3 uM concentration
# [32] = system: NCI-H1299; experiment: hTERT-SEAP (Human telomerase reverse transcriptase-SEAP) activity in non-small cell lung cancer H1299 cell at 2.3 uM concentration and level of cell viability determined in MTT assay
# [33] = system: NCI-H1299; experiment: hTERT-SEAP (Human telomerase reverse transcriptase-SEAP) activity in non-small cell lung cancer H1299 cell at 23 uM concentration and level of cell viability determined in MTT assay
Structure (SMILES),Relative SEAP activity [1] [%],Relative viability [2] [%],Relative SEAP activity [3] [%],Relative viability [4] [%],Relative SEAP activity [5] [%],Relative viability [6] [%],Relative viability [7] [%],Relative SEAP activity [8] [%],Relative SEAP activity [9] [%],Relative SEAP activity [12] [%],Relative viability [13] [%],Relative SEAP activity [14] [%],Relative SEAP activity [15] [%],Relative SEAP activity [16] [%],Relative viability [17] [%],Relative viability [18] [%],Relative SEAP activity [19] [%],Relative viability [21] [%],Relative viability [22] [%],Relative SEAP activity [23] [%],further results
Cc1ccccc1C(=O)Oc1cccc2c1C(=O)c1cccc(OC(=O)c3ccccc3C)c1C2=O,91,39,129,45,90,72,82,94,120,,,,,,,,,,,,Relative SEAP activity [10]: 97%; Relative viability [11]: 36%
O=C1c2cccc(SCCCCCCO)c2C(=O)c2cccc(SCCCCCCO)c21,100,40,140,36,68,99,70,75,128,,,,,,,,,,,,Relative SEAP activity [10]: 110%; Relative viability [11]: 94%
O=C1c2cccc(SCCc3ccccc3)c2C(=O)c2cccc(SCCc3ccccc3)c21,,,,,,,,,,109,93,102,110,97,91,51,108,27,54,119,Relative viability [20]: 35%
O=C(Cc1ccccc1)Oc1cccc2c1C(=O)c1cccc(OC(=O)Cc3ccccc3)c1C2=O,101,64,129,30,142,91,97,100,125,,,,,,,,,,,,Relative SEAP activity [10]: 98%; Relative viability [11]: 53%
Cc1cccc(C(=O)Oc2cccc3c2C(=O)c2cccc(OC(=O)c4cccc(C)c4)c2C3=O)c1,116,47,141,29,110,26,54,86,124,,,,,,,,,,,,Relative SEAP activity [10]: 104%; Relative viability [11]: 28%
Nc1cccc(Sc2cccc3c2C(=O)c2cccc(Sc4cccc(N)c4)c2C3=O)c1,,,,,,,,,,41,92,109,8,101,104,68,106,32,9,118,Relative viability [20]: 4%
CCCCCC(=O)Oc1cccc2c1C(=O)c1cccc(OC(=O)CCCCC)c1C2=O,,,,,,,,,,,,,,,,,,,,,Relative viability [24]: 106%; Relative SEAP activity [25]: 124%; Relative SEAP activity [26]: 95%; Relative viability [27]: 98%; Relative SEAP activity [28]: 149%; Relative SEAP activity [29]: 95%; Relative viability [30]: 62%; Relative SEAP activity [31]: 91%; Relative viability [32]: 117%; Relative viability [33]: 114%
Cc1ccc(C(=O)Oc2cccc3c2C(=O)c2cccc(OC(=O)c4ccc(C)cc4)c2C3=O)cc1,95,56,130,32,95,61,98,99,126,,,,,,,,,,,,Relative SEAP activity [10]: 98%; Relative viability [11]: 33%
O=C(Oc1cccc2c1C(=O)c1cccc(OC(=O)c3ccccc3)c1C2=O)c1ccccc1,,,,,,,,,,122,99,94,84,86,103,60,88,33,87,137,Relative viability [20]: 51%
Nc1ccc(Sc2cccc3c2C(=O)c2cccc(Sc4ccc(N)cc4)c2C3=O)cc1,,,,,,,,,,97,103,95,26,84,86,76,100,42,65,97,
Cc1ccc(Sc2cccc3c2C(=O)c2cccc(Sc4ccc(C)cc4)c2C3=O)cc1,,,,,,,,,,109,84,103,87,90,111,41,117,25,77,132,Relative viability [20]: 22%
O=C1c2cccc(SCc3ccccc3)c2C(=O)c2cccc(SCc3ccccc3)c21,,,,,,,,,,112,83,100,87,100,121,44,97,34,98,117,Relative viability [20]: 47%
